Where a chain is given by its changes, count along the chain named.
Assays:
[1] = molecular target: T1, NTAN1 (wild-type) (Homo sapiens, UniProt Q96AB6); assay: In vitro deamidation assay quantified by LC-MS, wild-type NTAN1; format: biochemical; details: 200 mM NaCl, 10 mM HEPES-NaOH (pH 7.0); for Deamidation activity on NXAAR peptides: 100 μM peptide, 37 °C, 1-20 min, three independent experiments; for Deamidation with 0.16 μM NTAN1: 0.16 μM NTAN1, 37 °C
T1 construct: The gene for full-length NTAN1 was cloned into pET-21a(+); made in house; host or cells: E. coli Rosetta 2(DE3)
T1 sequence (Q96AB6 1-310): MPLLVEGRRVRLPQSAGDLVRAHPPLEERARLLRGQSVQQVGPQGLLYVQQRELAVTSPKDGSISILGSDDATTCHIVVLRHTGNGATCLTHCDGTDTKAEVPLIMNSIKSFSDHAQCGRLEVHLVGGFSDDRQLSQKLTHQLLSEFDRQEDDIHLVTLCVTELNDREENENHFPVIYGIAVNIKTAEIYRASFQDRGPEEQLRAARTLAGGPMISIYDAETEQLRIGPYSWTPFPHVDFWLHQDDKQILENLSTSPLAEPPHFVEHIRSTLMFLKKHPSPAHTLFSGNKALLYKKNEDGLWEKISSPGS
Protocol: We synthesized codon-optimized NTAN1 gene of which sequence information was provided by Georgiou et al. for protein expression in Escherichia coli. The gene for full-length NTAN1 was cloned into pET-21a(+) (Novagen, Darmstadt, Germany) between Nde1 and Xho1 restriction sites to have C-terminal hexahistidine tag. NTAN1 was overexpressed in the Rosetta 2(DE3), E. coli strain (Novagen, Darmstadt, Germany). The transformed cells were grown in Luria-Bertani media containing ampicillin at 37 °C until the optical density at 600 nm reached 0.5 and protein expression was induced by 0.5 mM isopropyl β-D-1-thiogalactopyranoside. The cells were shake-incubated for additional for 16 h at 18 °C and harvested by centrifugation at 6000 × g for 10 min (Figure S1). The harvested cells were resuspended in a buffer containing 500 mM NaCl, 20 mM Tris-HCl (pH 7.5), 35 mM imidazole, and 1 mM phenylmethylsulfonyl fluoride and subsequently lysed by sonication. Lysed cells were centrifuged at 35,000 × g for 1 h. The resultant supernatant was filtered with 0.45 μm filter device (Sartorius, Göttingen, Germany) and loaded onto a 5-mL HiTrap Chelating HP column (GE Healthcare, Chicago, IL, USA) which had been pre-charged with Ni^2+ and equilibrated with a buffer containing 500 mM NaCl, 20 mM Tris-HCl (pH 7.5), and 35 mM imidazole. After nonspecifically bound proteins were eluted, the retained proteins were eluted by addition of an increasing gradient of a buffer containing 500 mM NaCl, 20 mM Tris-HCl (pH 7.5), and 1 M imidazole. The proteins were loaded onto a HiPrep Desalting 26/10 column (GE Healthcare, Chicago, IL, USA) and eluted with a buffer containing 50 mM NaCl and 20 mM Tris-HCl (pH 7.5) The eluates were loaded onto a HiTrap 5-mL Q HP column (GE Healthcare, Chicago, IL, USA) which had been equilibrated with a buffer containing 50 mM NaCl and 20 mM Tris-HCl (pH 7.5). After nonspecifically bound proteins were eluted, the retained proteins were eluted with addition of increasing gradient of a buffer containing 1 M NaCl and 20 mM Tris-HCl (pH 7.5). Finally, the proteins were concentrated, loaded onto a HiLoad 16/600 Superdex 200 pg column (GE Healthcare, Chicago, IL, USA), and eluted with a buffer containing 200 mM NaCl and 10 mM HEPES-NaOH (pH 7.0). Purity of the protein fractions was checked by sodium dodecyl sulfate-polyacrylamide gel electrophoresis after each purification step.
Peptides with Nt-Asn which mimic potential substrates of NTAN1 were synthesized: NRA, NRAA, NRAAA, NRQVA, NRQVAA, NRQVAAA, NFAAR, NLAAR, NRAAR, NAAAR, NNAAR, NPAAR, NGAAR, and NDAAR. Non-Nt-Asn peptides, QRAAA and VRAAA, were also synthesized. NTAN1 (at concentrations of 0.5 μM, 0.16 μM, or 0.04 μM) and the peptides (at a concentration of 100 μM) were mixed and incubated at 37 °C in a buffer containing 200 mM NaCl and 10 mM HEPES-NaOH (pH 7.0). The reactants sampled at various incubation time points (of 1, 2, 5, 10, and 20 min) were heat-inactivated at 95 °C for 10 min to stop further reaction. Subsequently, the samples were centrifuged at 20,000 × g and diluted 1/50 times with double-deionized water (DW) for liquid chromatography-mass spectrometry (LC-MS) analysis. The deamidation coefficient of peptides catalyzed by NTAN1 was assessed by the slope of exponential curve drawn from the concentration of the substrate over incubation time.
The peptides were quantified by an LC-MS system (1260 Infinity/6430 Triple Quad, Agilent Technologies) equipped with a binary pump (G1312B), a thermostated column compartment (G1316C), a thermostat (G1330B), and an autosampler (G1367E). Chromatographic separation was carried out by injecting an aliquot (2 µL) of analytical sample into a Kinetex C18 column (2.6 μm, 100 Å, 100 × 4.6 mm; Phenomenex, Torrance, CA, USA) with a C18 guard column (4 × 2.0 mm; Phenomenex, Torrance, CA, USA). The mobile phase consisted of acetonitrile and DW (30:70, v/v) with 0.2% (v/v) formic acid. […]

[2] = molecular target: T2, N-terminal asparagine amidohydrolase 1 (NTAN1) C75S mutant (human, UniProt Q96AB6 1-310, C75S); assay: SPR; NTAN1 C75S amine-coupled to a CM5 chip (3000 RU), Biacore T200; peptides at 1.95-62.50 μM injected for 120 s, 30 μL/min; 150 mM NaCl, 10 mM HEPES-NaOH pH 7.2, 0.1 mM TCEP, 0.001% polysorbate 20; 1:1 Langmuir model; details: both partners purified
T2 construct: N-terminal asparagine amidohydrolase 1 (NTAN1), human, full length, 310 residues; codon-optimized synthetic gene in pET-21a(+); catalytic Cys75 changed to Ser; C75S is not in the list of mutants in section 2.2; No step that cleaves the tag is described; source: E. coli Rosetta 2(DE3), purified as for NTAN1 (Ni2+ chelating, Q anion exchange, Superdex 200)
T2 sequence (looked up): T1 sequence (Q96AB6 1-310) with C75S

[3] = molecular target: T2, N-terminal asparagine amidohydrolase 1 …; assay: crystal structure; crystals of NTAN1 C75S soaked in reservoir solution with 10 mM synthetic peptide for 16 hr; two molecules in the asymmetric unit; details: both partners purified
[4] = molecular target: T3, NTAN1 S254A mutant (human) (UniProt Q96AB6)
T3 sequence: T1 sequence (Q96AB6 1-310) with S254A

[5] = 0.5 μM NTAN1 (Figure 2d; NNAAR also at 0.04 μM, Figure 2c)

Molecule: NDAAR [NXAAR substrate peptide, second-position Asp]
- Deamidation activity on NXAAR peptides [1, 5]: low deamidation activities

Molecule: NFAAR [NXAAR substrate pentapeptide, second-position Phe]
- Deamidation activity on NXAAR peptides ([1]; 0.04 μM NTAN1 (Figure 2c)): most efficiently deamidated

Molecule: NGAAR [NXAAR substrate peptide, second-position Gly]
- Deamidation activity on NXAAR peptides [1, 5]: low deamidation activities

Molecule: NLAAR [NXAAR substrate pentapeptide, second-position Leu]
- Deamidation activity on NXAAR peptides ([1]; 0.04 μM NTAN1 (Figure 2c)): most efficiently deamidated

Molecule: NNAAR [NXAAR substrate peptide, second-position Asn]
- Deamidation activity on NXAAR peptides [1, 5]: low deamidation activities

Molecule: NPAAR [NXAAR substrate peptide, second-position Pro]
- Deamidation activity on NXAAR peptides [1, 5]: low deamidation activities

Molecule: NRAAR [NXAAR substrate peptide, second-position Arg]
- Deamidation activity on NXAAR peptides ([1]; 0.04 μM NTAN1 (Figure 2c)): moderate deamidation activity

Molecule: NRQVA [synthesized modified Nt-Asn peptide, model substrate of NTAN1]
- Deamidation with 0.16 μM NTAN1 [1]: deamidated too rapidly

Molecule: NRQVAA [synthesized modified Nt-Asn peptide, model substrate of NTAN1]
- Deamidation with 0.16 μM NTAN1 [1]: deamidated too rapidly

Molecule: NRQVAAA [synthesized modified Nt-Asn peptide, model substrate of NTAN1]
- Deamidation with 0.16 μM NTAN1 [1]: deamidated too rapidly

B1: NLAAR peptide (peptide)
peptide: NLAAR
notes: model substrate peptide with N-terminal Asn; also called NLAAR pentapeptide; source: synthetic peptide
- Kd [2]: 0.0268 µM

B2: NFAAR peptide (peptide)
peptide: NFAAR
notes: model substrate peptide with N-terminal Asn; also called NFAAR pentapeptide; source: synthetic peptide
- binding result [3]: binds

B3: NAAAR peptide (peptide)
peptide: NAAAR
notes: model substrate peptide with N-terminal Asn; source: synthetic peptide
- Kd [2]: 4.67 µM

B4: NRAAA peptide (peptide)
peptide: NRAAA
- in vitro deamidation of the NRAAA peptide, LC-MS, deamidation rate against wild-type NTAN1 (fold lower than wild type) [4]: 3
